Assay results published in PMC9529094, “Identification of natural cytochalasins as leads for neglected tropical diseases drug discovery” (PLoS ONE, 2022).
≈ marks a conversion by molar mass, not a printed value. Where two headings read alike, the source gives them in different places.

What was measured:
[1] = system: intracellular L. infantum amastigotes; test: microbe, parasite or virus in culture; assay type: cell-based, Leishmania infantum; details: for IC50: intracellular amastigotes in THP-1 macrophages, 120 h, read-out: L. infantum IC50 (μM ± SD); for SI^2 (CC50 THP-1/IC50 L. infantum) / SI^4 (CC50 HepG2/IC50 L. infantum): selectivity index
Method: The epimastigote forms of the T. cruzi Tulahuen strain, which expresses the E. coli β-galactosidase gene lacZ [11], were grown in liver infusion tryptone (LIT) supplemented with 10% FCS (Cultilab) and 1% pen/strep (Sigma–Aldrich) at 28°C. Metacyclogenesis from epimastigotes to trypomastigotes was induced by the incubation of the epimastigotes in Grace’s insect medium (Sigma-Aldrich, 28°C) every 5 days. After 5 days, the trypomastigote forms were used to infect the HFF-1 cells. The promastigote forms of L. infantum were maintained in Schneider’s insect medium (Sigma-Aldrich) supplemented with 10% FCS (Cultilab) and 1% pen/strep (Sigma-Aldrich) at 28°C and subcultured every 6 or 7 days.
In the intracellular amastigote assay, THP-1 cells were seeded at 2x10^4/well (RPMI-1640, 100 μL) with phorbol 12-myristate 13-acetate (PMA) at 20 ng/mL for differentiation into macrophages. After incubation for 72 h (5% CO2, 37°C), the medium was aspirated, and late-stage L. infantum promastigotes were added (2x10^5/well, 100 μL). Following 24 h of incubation, the medium was aspirated to clear extracellular parasites, and the compounds were added in serial dilutions (2-fold) to final concentrations of 64–0.12 μM. The plates included negative controls (100% growth) and MIL (64–0.12 μM) as a positive control. After 120 h of incubation, the medium was removed, and the cells were fixed in methanol and stained with Giemsa. The average number of intracellular amastigotes per THP-1-cell was determined using an inverted microscope and a cell counter. Growth inhibition is expressed as a percentage of the average number of amastigotes per macrophage in the negative control wells. The IC50 values were obtained using GraphPad Prism version 8.0.
The analyses were performed using GraphPad Prism version 8.0 (GraphPad Software, San Diego, CA, USA). Both the IC50 and CC50 values were calculated by adjusting the sigmoid dose-response curves, and the selectivity index (SI) values were determined by CC50/IC50 [16]. Statistical analyses were performed using one-way ANOVA followed by Dunnett’s multiple comparison test.

physchem = assay type: physicochemical; details: aqueous buffer, kinetic from dmso stock
Method: The plate was sealed and shaken for 24 hours (200 rpm, r.t.). The precipitates on the incubation plate were removed by centrifugation (15 min., 3000 rpm, r.t.). The supernatant fractions were quantified by LC-MS/MS (liquid chromatography-tandem mass spectrometry) Prominence UFLC (Shimadzu Corporation, Kyoto, Japan) and interface with an LCMS-8045 triple quadrupole mass spectrometer (Shimadzu Corporation, Kyoto, Japan) with an electrospray ionization source (ESI). From a 10 mM standard solution, an intermediate standard dilution of 0.5 mM in a 1:1 acetonitrile:water solution was prepared. Calibration curves were prepared for each cytochalasin by diluting the intermediate standard several times to reach the desired concentrations of 50, 40, 20, 2, and 1 μM. The resulting equation for the calibration curve (y = mx + b) was used to calculate the experimental concentration values for the cytochalasins. The chromatogram for analysis was obtained on a Supelco Ascentis express C18 column (3 cm x 2.1 mm, 5 μM). The mobile phases consisted of water + 0.05% formic acid (A) and acetonitrile + 0.05% formic acid (B). The mobile phase was eluted in binary gradient mode, and the gradient was as follows: 0 min, 98% A; 1.2 mins. 2% A; 2.0 mins: 2% A; and re-equilibration time: 0.6 min., 98% A. The run time was 2 minutes, the sample injection volume was 5 μL, and the flow rate was 0.6 mL/min.

in vitro = in vitro ADME; details: PAMPA; donor pH 6.5, acceptor pH 7.4, 5 h, 37°C; read-out: PAMPA permeability Mean Pe
Method: A parallel artificial membrane permeability assay was performed in a 96-well precoated PAMPA plate system (Corning Gentest # 353015). The compound solutions were prepared by diluting the stock solutions (10 mM) in phosphate-buffered saline (PBS) pH 6.5 at a final concentration of 10 μM and then added to the donor portion of the plate (300 μl/well), while PBS pH 7.4 (200 μl/well) was added to the acceptor portion, and the DMSO concentration was lower than 1%. The two portions of the plate were then coupled, and the system was incubated for 5 h at 37°C. Samples of the initial donor solution (T0) were collected and stored at -20°C. At the end of the incubation, samples were collected from the donor and acceptor plates and then added to plates containing quench solution (10% water and 90% methanol:acetonitrile (50:50) + 50 nM tolbutamide). The T0 samples were treated similarly. The final concentrations of compounds in the donor, acceptor and T0 wells were quantified by LC-MS/MS (liquid chromatography-tandem mass spectrometry) Prominence UFLC (Shimadzu Corporation, Kyoto, Japan) and interfaced with an LCMS-8045 triple quadrupole mass spectrometer (Shimadzu Corporation, Kyoto, Japan) with an electrospray ionization source (ESI). The chromatogram for analysis was obtained on a Supelco Ascentis express C18 column (3 cm x 2.1 mm, 5 μM). The mobile phases consisted of water + 0.1% formic acid (A) and acetonitrile + 0.1% formic acid (B). The mobile phase was eluted in binary gradient mode, and the gradient was as follows: 0 min, 95% A; 0.05 mins. 95% A; 0.3 mins: 2% A; 0.7 mins: 2% A; 0.8 mins: 95% A; 1.15 mins 95% A; and 2.0 mins 95% A. The run time was 2 minutes, the sample injection volume was 10 μL, and the flow rate was 0.7 mL/min. The results were used to calculate an effective permeability (Pe) value.

[2] = Leishmania infantum, THP-1, 120 h
[3] = PBS pH 2.0, 24 h, read-out: Kinetic Solubility pH 2.0 (LogS) (converted)
[4] = PBS pH 7.4, 24 h, read-out: Kinetic Solubility pH 7.4 (LogS) (converted)

Row | SMILES | IC50 [1, 2] | SI^2 (CC50 THP-1/IC50 L. infantum) [1] | SI^4 (CC50 HepG2/IC50 L. infantum) [1] | solubility kinetic (physchem; [3]) | solubility kinetic (physchem; [4]) | Papp (in vitro) | IC50 [1]
1 | CC(=O)OC1C=CC(C)(O)C(=O)C(C)CC=CC2C(O)C(C)=C(C)C3C(Cc4ccccc4)NC(=O)C123 (stereo not shown) [Cytochalasin C] | 23.2 ± 4.9 µM | 3.65 | 0.96 | 17 µM (≈ 8.62 µg/mL) | 46.8 µM (≈ 23.7 µg/mL) | 14.8 ± 3.28 ×10⁻⁶ cm/s | 
2 | C=C1[C@@H](C)[C@H]2[C@H](Cc3ccccc3)NC(=O)[C@]23[C@H](OC(C)=O)/C=C/[C@@](C)(O)C(=O)[C@@H](C)C/C=C/[C@H]3[C@@H]1O [Cytochalasin D] | 22.5 ± 0.97 µM | 5.42 | 5.46 | 42.7 µM (≈ 21.7 µg/mL) | 46.8 µM (≈ 23.7 µg/mL) | 8.74 ± 0.64 ×10⁻⁶ cm/s | 
3 | C=C1[C@@H](C)[C@H]2[C@H](Cc3ccccc3)NC(=O)[C@]23OC(=O)/C=C/C(=O)CCC[C@@H](C)C/C=C/[C@H]3[C@@H]1O [Cytochalasin A] | 2.76 ± 1.17 µM | 6.17 | 7.65 | 39.8 µM (≈ 19 µg/mL) | 69.2 µM (≈ 33 µg/mL) | 27.1 ± 2.37 ×10⁻⁶ cm/s | 
4 | C=C1[C@@H](C)[C@H]2[C@H](Cc3ccccc3)NC(=O)[C@]23OC(=O)/C=C/[C@H](O)CCC[C@@H](C)C/C=C/[C@H]3[C@@H]1O [Cytochalasin B] | 22 to 23 µM | 4.57 | 1.93 | 77.6 µM (≈ 37.2 µg/mL) | 77.6 µM (≈ 37.2 µg/mL) | 15.8 ± 0.31 ×10⁻⁶ cm/s | 23.9 ± 3.02 µM
